Test results as given in patent publication US7862842B2, “Use of cationic preservative in food products” (priority 2001, dated 2011).

What was measured:
Mould & yeast [1] = test: microbiological evolution in veal stew; assay type: cell-based; settings: LAE 100 ppm, 10° C.
Method: (§1) The determination of the microbiological population is carried out according to the ISO standards.
(§2) The samples are treated by dilution in buffer peptone with the appropriate neutralising agent of the preservative. The culture media used for counting the microorganisms are: Soya triptone agar (32-35° C., 48 hours) for the determination of mesophilic bacteria; Sabouraud agar with chloramfenicol (25° C., 3-5 days) for fungi and yeast; Violet red bile glucose agar (32-35° C., 24 hours) for enterobacteria; Soya triptone agar (17° C., 5 days) for psychrotrophic bacteria.
(§3) The sample LAE was added to at a concentration of 100 ppm and its microbiological evolution at 10° C. was compared against a control.

Aerobe Bacteria [2] = test: microbiological evolution in veal stew; assay type: cell-based; settings: LAE 100 ppm, 10° C.
Method: as §1, §2, §3

Enterobacteria [3] = test: microbiological evolution in veal stew; assay type: cell-based; settings: LAE 100 ppm, 10° C.
Method: as §1, §2, §3

[4] = test system: Bordetella bronchiseptica ATCC 4617; test: minimum inhibitory concentration of LAE; assay type: cell-based; settings: Gram − Bacteria
[5] = test system: Gliocadium virens ATCC 4645; test: minimum inhibitory concentration of LAE; assay type: cell-based; settings: Fungi
[6] = test system: Rhodotorula rubra CECT 1158; test: minimum inhibitory concentration of LAE; assay type: cell-based; settings: Yeast
[7] = test system: Leuconostoc mesenteroides CETC 912; test: minimum inhibitory concentration of LAE; assay type: cell-based; settings: Gram + Bacteria
[8] = test system: Lactobacillus delbrueckii ssp lactis CECT 372; test: minimum inhibitory concentration of LAE; assay type: cell-based; settings: Gram + Bacteria
[9] = test system: Bacillus subtilis ATCC 6633; test: minimum inhibitory concentration of LAE; assay type: cell-based; settings: Gram + Bacteria
Mould & yeast [10] = test: microbiological evolution in a blackberry juice; assay type: cell-based; settings: LAE 60 ppm, 34° C.
Method: as §1, §2
(§4) The sample LAE was added to at a concentration of 60 ppm and its microbiological evolution at 34° C. was compared against a control.

Aerobe Bacteria [11] = test: microbiological evolution in a blackberry juice; assay type: cell-based; settings: LAE 60 ppm, 34° C.
Method: as §1, §2, §4

Psychro. Bacteria = test: evolution of bacteria in a chicken product; assay type: cell-based; settings: LAE 150 ppm, 10° C.
Method: as §1, §2
(§5) The sample LAE was added to at a concentration of 150 ppm and the evolution of aerobe and psychrotrophic bacteria at 10° C. was compared against a control.

Aerobe Bacteria [12] = test: evolution of bacteria in a chicken product; assay type: cell-based; settings: LAE 150 ppm, 10° C.
Method: as §1, §2, §5

[13] = test system: Candida albicans ATCC 10231; test: minimum inhibitory concentration of LAE; assay type: cell-based; settings: Yeast
Mould & yeast [14] = test: microbiological evolution in a carbonated orange beverage; assay type: cell-based; settings: LAE 100 ppm, 17° C.
Method: as §1, §2
(§6) The sample LAE was added to at a concentration of 100 ppm and its microbiological evolution at 17° C. was compared against a control.

Aerobe Bacteria [15] = test: as above; assay type: cell-based; settings: LAE 100 ppm, 17° C.
Method: as §1, §2, §6

[16] = test system: Staphylococcus aureus ATCC 6538; test: minimum inhibitory concentration of LAE; assay type: cell-based; settings: Gram + Bacteria
[17] = test system: Chaetonium globosum ATCC 6205; test: minimum inhibitory concentration of LAE; assay type: cell-based; settings: Fungi
[18] = test system: Aspergillus niger ATCC14604; test: minimum inhibitory concentration of LAE; assay type: cell-based; settings: Fungi
[19] = test system: Mycobacterium phlei ATCC 41423; test: minimum inhibitory concentration of LAE; assay type: cell-based; settings: listed under Gram − Bacteria
[20] = test system: Citrobacter freundii ATCC 22636; test: minimum inhibitory concentration of LAE; assay type: cell-based; settings: Gram − Bacteria
Mould & yeast [21] = test: microbiological evolution in fairy cakes; assay type: cell-based; settings: LAE 80 ppm, 25° C.
Method: as §1, §2
(§7) The sample LAE was added to at a concentration of 80 ppm and its microbiological evolution at 25° C. was compared against a control.

Aerobe Bacteria [22] = test: microbiological evolution in fairy cakes; assay type: cell-based; settings: LAE 80 ppm, 25° C.
Method: as §1, §2, §7

[23] = test system: Listeria monocytogenes ATCC 7644; test: minimum inhibitory concentration of LAE; assay type: cell-based; settings: Gram + Bacteria
[24] = test system: Clostridium perfringens ATCC 77454; assay type: cell-based; settings: Gram + Bacteria
[25] = test system: Enterobacter aerogenes CECT 689; test: minimum inhibitory concentration of LAE; assay type: cell-based; settings: Gram − Bacteria
[26] = test system: Penicillium chrysogenum CECT 2802; test: minimum inhibitory concentration of LAE; assay type: cell-based; settings: Fungi
[27] = test system: Proteus mirabilis CECT 170; test: minimum inhibitory concentration of LAE; assay type: cell-based; settings: Gram − Bacteria
[28] = test system: Saccharomyces cerevisiae ATCC 9763; test: minimum inhibitory concentration of LAE; assay type: cell-based; settings: Yeast
Mould & yeast [29] = test: microbiological evolution in semi-preserved codfish in oil; assay type: cell-based; settings: LAE 100 ppm, 4° C.
Method: as §1, §2
(§8) The sample LAE was added to the oil assayed at a concentration of 100 ppm and its microbiological evolution at 4° C. was compared against a control.

Aerobe Bacteria [30] = test: as above; assay type: cell-based; settings: LAE 100 ppm, 4° C.
Method: as §1, §2, §8

[31] = test system: Serratia marcenses CECT 274; test: minimum inhibitory concentration of LAE; assay type: cell-based; settings: Gram − Bacteria
metabolism in rats = assay type: in vivo
toxicological studies = assay type: in vivo; settings: animals and humans
[32] = test system: Salmonella typhimurium ATCC 16028; test: minimum inhibitory concentration of LAE; assay type: cell-based; settings: Gram − Bacteria
Mould & yeast [33] = test: microbiological evolution in ketchup; assay type: cell-based; settings: LAE 100 ppm, 25° C.
Method: as §1, §2
(§9) The sample LAE was added to at a concentration of 100 ppm and its microbiological evolution at 25° C. was compared against a control.

Aerobe Bacteria [34] = test: microbiological evolution in ketchup; assay type: cell-based; settings: LAE 100 ppm, 25° C.
Method: as §1, §2, §9

Enterobacteria [35] = test: microbiological evolution in ketchup; assay type: cell-based; settings: LAE 100 ppm, 25° C.
Method: as §1, §2, §9

[36] = test system: Arthrobacter oxydans ATCC 8010; test: minimum inhibitory concentration of LAE; assay type: cell-based; settings: Gram + Bacteria
Escherichia coli 0157H7 = test: minimum inhibitory concentration of LAE; assay type: cell-based; settings: Gram − Bacteria
[37] = test system: Alcaligenes faecalis ATCC 8750; test: minimum inhibitory concentration of LAE; assay type: cell-based; settings: Gram − Bacteria
[38] = test system: Pseudomonas aeruginosa ATCC 9027; test: minimum inhibitory concentration of LAE; assay type: cell-based; settings: Gram − Bacteria
[39] = test system: Bacillus cereus var mycoide ATCC 11778; test: minimum inhibitory concentration of LAE; assay type: cell-based; settings: Gram + Bacteria
[40] = test system: Micrococcus luteus ATCC 9631; test: minimum inhibitory concentration of LAE; assay type: cell-based; settings: Gram + Bacteria
[41] = test system: Klebsiella pneumoniae var pneumoniae CECT 178; test: minimum inhibitory concentration of LAE; assay type: cell-based; settings: Gram − Bacteria
[42] = test system: Penicillium funiculosum CECT 2914; test: minimum inhibitory concentration of LAE; assay type: cell-based; settings: Fungi
[43] = test system: Aureobasidium pullulans ATCC 9348; test: minimum inhibitory concentration of LAE; assay type: cell-based; settings: Fungi
[44] = test system: Escherichia coli ATCC 8739; test: minimum inhibitory concentration of LAE; assay type: cell-based; settings: Gram − Bacteria
Aerobe Bacteria [45] = test: microbiological evolution in custard; assay type: cell-based; settings: LAE 100 ppm, 25° C.
Method: as §1, §2, §9

Anaerobe Bacteria = test: microbiological evolution in custard; assay type: cell-based; settings: LAE 100 ppm, 25° C.
Method: as §1, §2, §9

In the case of CCCCCCCCCCCC(=O)N[C@@H](CCCN=C(N)N)C(=O)OCC.Cl [LAE, ethyl ester of the lauramide of the arginine monohydrochloride], the “Mould & yeast count” value (Mould & yeast [1]; 0 days) is reported as <10 cfu/g, the “Mould & yeast count” value (Mould & yeast [1]; 14 days) is reported as <10 cfu/g and the “Aerobe Bacteria count” value (Aerobe Bacteria [2]; 0 days) is reported as <10 cfu/g. For the same compound, the “Aerobe Bacteria count” value (Aerobe Bacteria [2]; 14 days) was <10 cfu/g, the Enterobacteria count (Enterobacteria [3]; 0 days) was <10 cfu/g and the Enterobacteria count (Enterobacteria [3]; 14 days) was <10 cfu/g. The M.I.C. [4] was 128 ppm, the M.I.C. [5] was 32 ppm and the M.I.C. [6] was 16 ppm. The M.I.C. [7] was 32 ppm, the M.I.C. [8] was 16 ppm and the M.I.C. [9] was 16 ppm. The “Mould & yeast count” value (Mould & yeast [10]; 0 days) was <10 cfu/g, the “Mould & yeast count” value (Mould & yeast [10]; 14 days) was <10 cfu/g and the “Aerobe Bacteria count” value (Aerobe Bacteria [11]; 0 days) was 4.0 · 10^2 cfu/g. The “Aerobe Bacteria count” value (Aerobe Bacteria [11]; 14 days) was 2.4 · 10^3 cfu/g, the “Psychro. Bacteria count” value (Psychro. Bacteria; 0 days) was 3.0 · 10^4 cfu/g and the “Psychro. Bacteria count” value (Psychro. Bacteria; 14 days) was 7.1 · 10^4 cfu/g. The “Psychro. Bacteria count” value (Psychro. Bacteria; 43 days) was 6.8 · 10^4 cfu/g, the “Aerobe Bacteria count” value (Aerobe Bacteria [12]; 0 days) was 1.2 · 10^5 cfu/g and the “Aerobe Bacteria count” value (Aerobe Bacteria [12]; 14 days) was 4.2 · 10^5 cfu/g. The “Aerobe Bacteria count” value (Aerobe Bacteria [12]; 43 days) was 6.1 · 10^5 cfu/g, the M.I.C. [13] was 16 ppm and the “Mould & yeast count” value (Mould & yeast [14]; 0 days) was <10 cfu/g. The “Mould & yeast count” value (Mould & yeast [14]; 14 days) was <10 cfu/g, the “Aerobe Bacteria count” value (Aerobe Bacteria [15]; 0 days) was 4.3 · 10^2 cfu/g and the “Aerobe Bacteria count” value (Aerobe Bacteria [15]; 14 days) was 1.0 · 10^2 cfu/g. For the same compound, the M.I.C. [16] was 32 ppm, the M.I.C. [17] was 16 ppm and the M.I.C. [18] was 32 ppm. For the same compound, the M.I.C. [19] was 2 ppm, the M.I.C. [20] was 64 ppm and the “Mould & yeast count” value (Mould & yeast [21]; 0 months) was <10 cfu/g. For the same compound, the “Mould & yeast count” value (Mould & yeast [21]; 3 months) was <10 cfu/g, the “Aerobe Bacteria count” value (Aerobe Bacteria [22]; 0 months) was <10 cfu/g and the “Aerobe Bacteria count” value (Aerobe Bacteria [22]; 3 months) was 1.1 · 10^2 cfu/g. For the same compound, the M.I.C. [23] was 10 ppm, the M.I.C. [24] was 16 ppm and the M.I.C. [25] was 32 ppm. The M.I.C. [26] was 128 ppm, the M.I.C. [27] was 32 ppm and the M.I.C. [28] was 32 ppm. For the same compound, the “Mould & yeast count” value (Mould & yeast [29]; 0 days) was 3.0 · 10^2 cfu/g, the “Mould & yeast count” value (Mould & yeast [29]; 14 days) was 5.4 · 10^3 cfu/g and the “Mould & yeast count” value (Mould & yeast [29]; 43 days) was 8.2 · 10^3 cfu/g. The “Aerobe Bacteria count” value (Aerobe Bacteria [30]; 0 days) was 7.6 · 10^3 cfu/g, the “Aerobe Bacteria count” value (Aerobe Bacteria [30]; 14 days) was 1.0 · 10^4 cfu/g and the “Aerobe Bacteria count” value (Aerobe Bacteria [30]; 43 days) was 8.5 · 10^4 cfu/g. For the same compound, the M.I.C. [31] was 32 ppm, the absorption and metabolism (metabolism in rats) was “fast absorption and metabolisation into naturally-occurring amino acids and the fatty acid lauric acid” and the toxicity (toxicological studies) was “completely harmless to animals and humans”. For the same compound, the M.I.C. [32] was 32 ppm, the “Mould & yeast count” value (Mould & yeast [33]; 0 days) was <10 cfu/g and the “Mould & yeast count” value (Mould & yeast [33]; 14 days) was 1.4 · 10^1 cfu/g. The “Aerobe Bacteria count” value (Aerobe Bacteria [34]; 0 days) was <10 cfu/g, the “Aerobe Bacteria count” value (Aerobe Bacteria [34]; 14 days) was 2.2 · 10^3 cfu/g and the Enterobacteria count (Enterobacteria [35]; 0 days) was <10 cfu/g. The Enterobacteria count (Enterobacteria [35]; 14 days) was <10 cfu/g, the M.I.C. [36] was 64 ppm and the M.I.C. (Escherichia coli 0157H7) was 20 ppm. It also gave a M.I.C. [37] of 64 ppm, a M.I.C. [38] of 64 ppm and a M.I.C. [39] of 32 ppm. The M.I.C. [40] was 128 ppm, the M.I.C. [41] was 32 ppm and the M.I.C. [42] was 16 ppm. The M.I.C. [43] was 16 ppm, the M.I.C. [44] was 32 ppm and the “Aerobe Bacteria count” value (Aerobe Bacteria [45]; 0 days) was <10 cfu/g. The “Aerobe Bacteria count” value (Aerobe Bacteria [45]; 5 days) was 1.1 · 10^3 cfu/g, the “Anaerobe Bacteria count” value (Anaerobe Bacteria; 0 days) was <10 cfu/g and the “Anaerobe Bacteria count” value (Anaerobe Bacteria; 5 days) was 4.1 · 10^2 cfu/g.
